From article PMC7370100, “In Vitro Assessment of the Genotoxic Hazard of Novel Hydroxamic Acid- and Benzamide-Type Histone Deacetylase Inhibitors (HDACi)” (International Journal of Molecular Sciences, 2020)
Like-named read-outs stand apart in the source and are kept apart here.

Columns and labels:
V79 hamster lung cells [1] = assay: Alamar blue assay (cell viability), V79 cells; format: cell-based; settings: for less cytotoxic to non-malignant V79 cells than to malignant neuroblastoma cells (IC50 based): selection criterion, IC50 of Table S1
Protocol: (§1) V79 hamster lung cells, which are recommended in the OECD toxicology guidelines for hazard identification (i.e., cytotoxicity and genotoxicity) of chemicals, were purchased from the German Collection of Microorganisms and Cell Cultures (DSMZ, Braunschweig, Germany). They were cultured in Dulbecco´s modified Eagle medium and Ham´s F12 medium (DMEM/F12) (PromoCell, Heidelberg, Germany) containing 10% fetal calf serum at 37 °C in a humidified atmosphere containing 5% CO2. VC8 hamster cells were defective in DNA double-strand break (DSB) repair by homologous recombination (HR) due to the lack of functional BRCA2 protein [69, 70]. VC8 cells were provided by B. Kaina (Institute of Toxicology, Mainz, Germany). Nucleotide excision repair defective XPA and CSB deficient cells were also provided by B. Kaina and were described before. They were grown in DMEM containing 10% fetal calf serum. Human neuroblastoma cells (IMR-32 and SH-SY5Y) were purchased from the German Collection of Microorganisms and Cell Cultures (DSMZ, Braunschweig, Germany) and were used as a model of malignant cells. They were grown in DMEM or RPMI (Roswell park memorial institute) medium, respectively, containing 10% fetal calf serum. If not stated otherwise, HDACi were added to the exponentially growing cells and analyses were performed 6 h to 72 h later.
(§2) Cell viability was determined using the Alamar blue assay, which reflected the mitochondrial activity. Viable cells were characterized by an effective mitochondrial metabolization of the non-fluorescent dye resazurin (Sigma, Steinheim, Germany) to fluorescent resorufin (excitation: 535 nm, emission: 590 nm). Relative viability in the untreated control was set to 100%. In addition, the Neutral red assay, which measures the integrity of lysosomal membranes, was used to monitor cytotoxicity. To this end, cells were incubated with the Neutral red solution (0.01%) in an atmosphere containing 5% CO2 for 90 min before they were fixed (1% formaldehyde/1% CaCl2). Afterwards, the Neutral red that was taken up by the cells was extracted (50% ethanol/1% of acetic acid, 15 min at room temperature (RT)) and absorbance (540 nm) was measured. If not stated otherwise, data are shown as the mean ± standard deviation (SD) of two to three independent experiments each performed in quadruplicate. Approximate IC50 (~IC50, see Supplementary Table S1) were calculated from the corresponding dose-response curves.

V79 hamster lung cells [2] = assay: Neutral red assay (cytotoxicity), V79 cells; format: cell-based
Protocol: as §1, §2

[3] = system: IMR-32 neuroblastoma cells; assay: Neutral red assay (cytotoxicity), IMR-32 cells; format: cell-based, human
Protocol: as §1, §2

V79 cells [4] = assay: DNA damage response (DDR) activation by Western blot; format: cell-based, hamster; settings: for activation of DDR factors (γH2AX, p-p53, p-Chk1, p-Chk2, p-Kap1 protein levels): V79, Western blot, in words; for DDR Activation: summary grade, V79; as to DDR Activation: key: −: no effect; 0: weak effect; +: moderate effect; ++: strong effect; +++: very strong effect as compared to untreated controls
Protocol: The activation of the DDR was investigated by Western blot analysis. To this end, total cell extracts were obtained by lysing an equal number of cells in Roti®-Load buffer (Carl Roth GmbH (Karlsruhe, Germany)) (5 min, RT). After sonication (EpiShear™ Probe sonicator, Active Motif, La Hulpe, Belgium), proteins were denatured by heating (5 min, 95 °C) and separated by SDS-PAGE (6% or 12.5% gel). Proteins were transferred onto a nitrocellulose membrane (GE Healthcare, Little Chalfont, UK) via the Protean Mini Cell System (BioRad (München, Germany)). The membrane was blocked with 5% non-fat milk in TBS/0.1% Tween 20 (MERCK, Darmstadt, Germany) (2 h, RT) and incubated with the corresponding primary antibody (1:1000, overnight, 4 °C). After washing with TBS/0.1% Tween 20, the secondary (peroxidase-conjugated) antibody was added (1:2000, 2 h, RT). The Fusion FX7 imaging system (PeqLab, Erlangen, Germany) was used for visualization of the bound antibodies. The following primary antibodies were used: Anti-Ser15 phosphorylated protein 53 (p-p53), anti-Talin-1, anti-Ser 345 checkpoint kinase 1 (p-Chk1), anti-cleaved caspase 3 and 7 (Cell Signaling, Beverly, MA, USA), anti-Ser824 phosphorylated Krüppel-associated box domain (KRAB)-associated protein-1 (p-Kap1), anti-Ser1981 phosphorylated ataxia telangiectasia mutated (pATM) and anti-Thr68 phosphorylated checkpoint kinase-2 (p-Chk2) (both Abcam, Cambridge, MA, USA), anti-Ser139 phosphorylated histone H2AX (γH2AX, Millipore, Billerica, MA, USA), and anti-β-actin (Santa Cruz, CA, USA). As secondary antibodies, horseradish peroxidase-conjugated secondary antibodies goat anti-mouse IgG and mouse anti-rabbit IgG (Rockland, Limerick, PA, USA) (2 h, RT) were used.

[5] = system: VC8 hamster cells (BRCA1/2 defect); assay: Viability of DSB repair defective VC8 versus wild-type V79 cells (Alamar blue); format: cell-based; settings: summary grade, V79 versus VC8; also: key: −: no effect; 0: weak effect; +: moderate effect; ++: strong effect; +++: very strong effect as compared to untreated controls
Protocol: as §1, §2

XPA-deficient cells = assay: Viability of XPA-deficient versus proficient fibroblasts (Alamar blue); format: cell-based, human; settings: 72 h, in words
Protocol: Figure 7 Sensitivity of nucleotide excision repair (NER) defective cells to hydroxamic acid- and benzamide-type HDACi. Viability of wild-type human fibroblasts and fibroblasts defective in nucleotide excision repair (NER) pathways (i.e., global genome nucleotide excision repair (GG-NER) or transcription-coupled nucleotide excision repair (TC-NER)) due to a defect in Xeroderma pigmentosum group A protein (XPA) or Cockayne syndrome protein B (CSB), respectively, was analyzed 72 h after the addition of HDACi by the Alamar blue assay, as described in Methods. The DNA intrastrand cross-linking agent cisplatin was used for control. Data shown are the mean ± SD from three independent experiments (n = 3) each performed in triplicate (N = 3); ns, not significant; *, p ≤ 0.05; **, p ≤ 0.01 as compared to the corresponding untreated controls (Student´s t-test).
V79 hamster lung cells, which are recommended in the OECD toxicology guidelines for hazard identification (i.e., cytotoxicity and genotoxicity) of chemicals, were purchased from the German Collection of Microorganisms and Cell Cultures (DSMZ, Braunschweig, Germany). They were cultured in Dulbecco´s modified Eagle medium and Ham´s F12 medium (DMEM/F12) (PromoCell, Heidelberg, Germany) containing 10% fetal calf serum at 37 °C in a humidified atmosphere containing 5% CO2. VC8 hamster cells were defective in DNA double-strand break (DSB) repair by homologous recombination (HR) due to the lack of functional BRCA2 protein [69, 70]. VC8 cells were provided by B. Kaina (Institute of Toxicology, Mainz, Germany). Nucleotide excision repair defective XPA and CSB deficient cells were also provided by B. Kaina and were described before. […]
Cell viability was determined using the Alamar blue assay, which reflected the mitochondrial activity. […] Afterwards, the Neutral red that was taken up by the cells was extracted (50% ethanol/1% of acetic acid, 15 min at room temperature (RT)) and absorbance (540 nm) was measured. […] Approximate IC50 (~IC50, see Supplementary Table S1) were calculated from the corresponding dose-response curves.

V79 cells [6] = assay: Micronucleus assay; settings: for micronucleus assay outcome at 50 μM (printed in Figure 2A) / Micronucl. Assay: V79; for Micronucl. Assay: summary grade
Protocol: We analyzed the frequency of micronuclei in binucleated cells, as described [86]. Briefly, logarithmically growing cells were treated with cytochalasin B (3 µg/m) for 24 h. After fixation with formaldehyde (3.7% in PBS, 20 min, RT) and washing with PBS, cells were permeabilized using precooled methanol (20 min, −20 °C.) After washing with PBS and rinsing the cell layer with PBS containing Triton X100 (PBST; 0.3% Triton X100 in PBS), DNA was stained by DAPI (4´,6-diamino-2-phenylindole) and the number of micronuclei was evaluated by fluorescence microscopy. Data shown are the mean ± SEM of three independent experiments with ≥1000 binucleated cells evaluated per experimental condition.

V79 cells [7] = assay: Cell cycle distribution / SubG1 fraction by flow cytometry; format: cell-based, hamster; settings: 24 h, in words
Protocol: For flow cytometry-based analysis of cell cycle distribution, cells were trypsinized and combined with floating cells present in the medium. Following fixation with ice-cold ethanol (80%) (≥1 h, −20 °C), cells were pelleted (1000× g, 10 min, 4 °C) and suspended in phosphate-buffered saline (PBS). DNase-free RNase A (Serva, Heidelberg, Germany) was added (2 μg/mL, 1 h at RT). Nuclei were stained with propidium iodide (36.7 μg/mL Sigma, Steinheim, Germany) and analysis was performed using BD Accuri™C6 flow cytometer (BD, Franklin Lakes, NJ, USA).

[8] = V79, 24 h after drug treatment (values match Alamar blue data of Table S1), read-out: Viability (IC50) 24 h
[9] = V79, 72 h after drug treatment (values match Alamar blue data of Table S1), read-out: Viability (IC50) 72 h
[10] = 24 h, approximate IC50, read-out: IC50 - 24 h Treatment, V79
[11] = 72 h, approximate IC50, read-out: IC50 - 72 h Treatment, V79
[12] = 24 h, approximate IC50, read-out: IC50 - 24 h Treatment, IMR-32
[13] = 72 h, approximate IC50, read-out: IC50 - 72 h Treatment, IMR-32

Compound	IC50 (V79 hamster lung cells [1]; [8])	IC50 (V79 hamster lung cells [1]; [9])	less cytotoxic to non-malignant V79 cells than to malignant neuroblastoma cells (IC50 based) (V79 hamster lung cells [1])	IC50 (V79 hamster lung cells [2]; [10])	IC50 (V79 hamster lung cells [2]; [11])	IC50 [3, 12]	IC50 [3, 13]	activation of DDR factors (γH2AX, p-p53, p-Chk1, p-Chk2, p-Kap1 protein levels) (V79 cells [4])	DDR Activation (V79 cells [4])	DSB Repair def. Cells [5]	sensitivity of XPA-deficient versus XPA proficient cells (XPA-deficient cells)	micronucleus assay outcome at 50 μM (printed in Figure 2A) (V79 cells [6])	Micronucl. Assay (V79 cells [6])	IC50 (V79 hamster lung cells [2]; V79, 24 h, approximate IC50, read-out: IC50 - 24 h Treatment, V79)	IC50 (V79 hamster lung cells [2]; V79, 72 h, approximate IC50, read-out: IC50 - 72 h Treatment, V79)	IC50 ([3]; Homo sapiens, IMR-32, 24 h, approximate IC50, read-out: IC50 - 24 h Treatment, IMR-32)	IC50 ([3]; Homo sapiens, IMR-32, 72 h, approximate IC50, read-out: IC50 - 72 h Treatment, IMR-32)	percentage of V79 cells in the SubG1 fraction (V79 cells [7])	frequency of micronuclei (V79 cells [6]; 24 h, V79, in words)
CN(C)c1ccc(C(=O)N(CC(=O)NCc2ccccc2)Cc2ccc(C(=O)NO)cc2)cc1 [DDK137]	33 µM	11 µM	≥ 10 fold	36 µM	17 µM	10 µM	0.3 µM	substantial increase in γH2AX levels but no, or only a minor, increase in p-p53 and p-Chk1/p-Chk2 levels	+	+	XPA-deficient cells are even more resistant	Cytotoxic	+						
Nc1ccccc1NC(=O)c1ccc(CNC(=O)OCc2cccnc2)cc1 [Entinostat, entinostat, reference compound]	> 50 µM	7 µM						substantial increase in γH2AX levels but no, or only a minor, increase in p-p53 and p-Chk1/p-Chk2 levels	+	+				> 50 µM	2 µM	> 50 µM	3 µM	did not increase the percentage of cells present in the SubG1 fraction	
Nc1ccc(F)cc1NC(=O)c1ccc(CONC(=O)C=Cc2cccnc2)cc1 [MPK77]	> 50 µM	50 µM	≥ 10 fold	> 50 µM	35 µM	9 µM	3 µM	failed to provoke a clear increase in γH2AX protein level	−	+			+					neither induced cell death as reflected by an increase in the SubG1 population	slight but significant increase in the frequency of micronuclei
O=C(CCCCCCC(=O)Nc1ccccc1)NO [Vorinostat, vorinostat, reference compound]								substantial increase in γH2AX levels but no, or only a minor, increase in p-p53 and p-Chk1/p-Chk2 levels	+	++	XPA-deficient cells are even more resistant	Cytotoxic	+					moderate increase of the percentage of V79 cells present in the SubG1 fraction	
